According to patent US12655130B2 (ASSEMBLY BIOSCIENCES, INC., priority 2020, dated 2026):

What follows are molecules tested on HBV viral load (viral production from HepAD38 cells) (assay: Activity of test compounds on viral production from HepAD38 cells (viral load by qPCR of HBV core sequence)). Details: Hepatitis B virus, HePAD38, 120 h, viral load lowering, 5 days, qPCR of supernatant, read-out: VL HepAD38 EC50 range.
Format: cell-based
How it was run: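 EC50 and CC50 come from four-parameter logistic fits: HBV core DNA in supernatant by TaqMan qPCR against DNA standards, normalised to DMSO controls, and cell viability by CellTiter-Glo. Cells were plated at 50,000/well without tetracycline (2% FBS) and exposed to compounds (highest 10 μM) for 5 days, 37 °C.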

Row | SMILES | EC50 [nM]
1 | Cc1c(N)nn(C)c1C1(O)CC2CC(c3ncn(C)c3C(=O)Nc3ccc(F)c(Cl)c3)CC2C1 (centres unmarked) [Example 75, 4-(5-(3-Amino-1,4-dimethyl-1H-pyrazol-5-yl)-5-hydroxyoctahydropentalen-2-yl)-N-(3-chloro-4-fluorophenyl)-1-methyl-1H-imidazole-5-carboxamide] | < 10
2 | CC(C)n1cc(C2(O)CC3CC(c4ncn(C)c4C(=O)Nc4ccc(F)c(Cl)c4)CC3C2)c(C(F)(F)F)n1 (centres unmarked) [Example 157, N-(3-Chloro-4-fluorophenyl)-4-(5-hydroxy-5-(1-isopropyl-3-(trifluoromethyl)-1H-pyrazol-4-yl)octahydropentalen-2-yl)-1-methyl-1H-imidazole-5-carboxamide] | < 10
3 | Cn1cnc(C2CC3CC(O)(c4c(Cl)c(N)nn4C)CC3C2)c1C(=O)Nc1ccc(F)cc1 (centres unmarked) [Example 103, 4-(5-(3-amino-4-chloro-1-methyl-1H-pyrazol-5-yl)-5-hydroxyoctahydropentalen-2-yl)-N-(4-fluorophenyl)-1-methyl-1H-imidazole-5-carboxamide] | < 10
4 | Cn1cnc(C2CC3CC(O)(c4cc(O)nn4C)CC3C2)c1C(=O)Nc1ccc(F)c(Cl)c1 (centres unmarked) [Example 53, N-(3-Chloro-4-fluorophenyl)-4-(5-hydroxy-5-(3-hydroxy-1-methyl-1H-pyrazol-5-yl)octahydropentalen-2-yl)-1-methyl-1H-imidazole-5-carboxamide] | < 10
5 | CC(C)c1cc(C2(O)CC3CC(c4ncn(C)c4C(=O)Nc4ccc(F)c(Cl)c4)CC3C2)n(C)n1 (centres unmarked) [Example 94, N-(3-chloro-4-fluorophenyl)-4-(5-hydroxy-5-(3-isopropyl-1-methyl-1H-pyrazol-5-yl)octahydropentalen-2-yl)-1-methyl-1H-imidazole-5-carboxamide] | < 10
6 | Cn1c(N)nc(C2CC3CC(O)CC3C2)c1C(=O)Nc1ccc(F)c(Cl)c1 (centres unmarked) [Example 28, 2-Amino-N-(3-chloro-4-fluorophenyl)-4-(5-hydroxyoctahydropentalen-2-yl)-1-methyl-1H-imidazole-5-carboxamide] | < 10
7 | CCC(O)COc1cc(C2(O)CC3CC(c4ncn(C)c4C(=O)Nc4ccc(F)c(Cl)c4)CC3C2)n(C)n1 (centres unmarked) [Example 203, N-(3-Chloro-4-fluorophenyl)-4-(5-hydroxy-5-(3-(2-hydroxybutoxy)-1-methyl-1H-pyrazol-5-yl)octahydropentalen-2-yl)-1-methyl-1H-imidazole-5-carboxamide] | < 10
8 | CC(C)n1nc(C(F)F)cc1C1(O)CC2CC(c3ncn(C)c3C(=O)Nc3ccc(F)c(Cl)c3)CC2C1 (centres unmarked) [Example 153, N-(3-Chloro-4-fluorophenyl)-4-(5-(3-(difluoromethyl)-1-isopropyl-1H-pyrazol-5-yl)-5-hydroxyoctahydropentalen-2-yl)-1-methyl-1H-imidazole-5-carboxamide] | < 10
9 | Cn1cnc(C2CC3CC(O)(c4ccccn4)CC3C2)c1C(=O)Nc1ccc(F)c(Cl)c1 (centres unmarked) [Example 9, N-(3-Chloro-4-fluorophenyl)-4-(5-hydroxy-5-(pyridin-2-yl)octahydropentalen-2-yl)-1-methyl-1H-imidazole-5-carboxamide] | < 10
10 | Cc1nc(C2CC3CC(O)(c4ccnn4C(C)C)CC3C2)c(C(=O)Nc2ccc(F)c(Cl)c2)n1C (centres unmarked) [Example 140, N-(3-Chloro-4-fluorophenyl)-4-(5-hydroxy-5-(1-isopropyl-1H-pyrazol-5-yl)octahydropentalen-2-yl)-1,2-dimethyl-1H-imidazole-5-carboxamide] | < 10
11 | Cn1cnc(C2CC3CC(O)(c4cc(OCC(C)(C)O)nn4C)CC3C2)c1C(=O)Nc1ccc(F)c(Cl)c1 (centres unmarked) [Example 55, N-(3-Chloro-4-fluorophenyl)-4-(5-hydroxy-5-(3-(2-hydroxy-2-methylpropoxy)-1-methyl-1H-pyrazol-5-yl)octahydropentalen-2-yl)-1-methyl-1H-imidazole-5-carboxamide] | < 10
12 | CCNc1nc(C2CC3CC(O)CC3C2)c(C(=O)Nc2ccc(F)c(Cl)c2)n1C (centres unmarked) [Example 41, 5-[-5-Hydroxy-1,2,3,3a,4,5,6,6a-octahydropentalen-2-yl]-N-(3-chloro-4-fluorophenyl)-2-(ethylamino)-3-methyl-4-imidazolecarboxamide] | 10 to 50
13 | CCn1nc(C(F)F)cc1C1(O)CC2CC(c3ncn(C)c3C(=O)Nc3ccc(F)c(F)c3)CC2C1 (centres unmarked) [Example 177, 4-(5-(3-(Difluoromethyl)-1-ethyl-1H-pyrazol-5-yl)-5-hydroxyoctahydropentalen-2-yl)-N-(3,4-difluorophenyl)-1-methyl-1H-imidazole-5-carboxamide] | < 10
14 | Cn1cnc(C2CC3CC(O)(c4cc(C(C)(C)C)nn4C)CC3C2)c1C(=O)Nc1ccc(F)c(Cl)c1 (single isomer, unassigned) [Example 74] | < 10
15 | Cn1c(Cl)nc(C2CC3CC(O)CC3C2)c1C(=O)Nc1ccc(F)c(Cl)c1 (centres unmarked) [Example 22, 2-Chloro-N-(3-chloro-4-fluorophenyl)-4-(5-hydroxyoctahydropentalen-2-yl)-1-methyl-1H-imidazole-5-carboxamide] | < 10
16 | CCn1cc(C(F)(F)F)c(C2(O)CC3CC(c4ncn(C)c4C(=O)Nc4ccc(F)c(Cl)c4)CC3C2)n1 (centres unmarked) [Example 159, N-(3-Chloro-4-fluorophenyl)-4-(5-(1-ethyl-4-(trifluoromethyl)-1H-pyrazol-3-yl)-5-hydroxyoctahydropentalen-2-yl)-1-methyl-1H-imidazole-5-carboxamide] | < 10
17 | Cn1cnc(C2CC3CC(O)(c4[nH]ncc4F)CC3C2)c1C(=O)Nc1ccc(F)c(Cl)c1 (centres unmarked) [Example 148, N-(3-Chloro-4-fluorophenyl)-4-(5-(4-fluoro-1H-pyrazol-5-yl)-5-hydroxyoctahydropentalen-2-yl)-1-methyl-1H-imidazole-5-carboxamide] | < 10
18 | Cn1cnc(-c2ccc(C3CCC(c4ncn(C)c4C(=O)Nc4ccc(F)c(Cl)c4)C3)cc2)c1 (centres unmarked) [Example 14, N-(3-Chloro-4-fluorophenyl)-1-methyl-4-(3-(4-(1-methyl-1H-imidazol-4-yl)phenyl)cyclopentyl)-1H-imidazole-5-carboxamide] | < 10
19 | Cn1cnc(C2CC3CC(O)(c4ccccc4)CC3C2)c1C(=O)Nc1ccc(F)c(Cl)c1 (centres unmarked) [Example 8, N-(3-Chloro-4-fluorophenyl)-4-(5-hydroxy-5-phenyloctahydropentalen-2-yl)-1-methyl-1H-imidazole-5-carboxamide] | < 10
20 | CCOC(=O)Oc1cc(C2(O)CC3CC(c4ncn(C)c4C(=O)Nc4ccc(F)c(Cl)c4)CC3C2)n(C)n1 (centres unmarked) [Example 222, 5-(5-(5-((3-Chloro-4-fluorophenyl)carbamoyl)-1-methyl-1H-imidazol-4-yl)-2-hydroxyoctahydropentalen-2-yl)-1-methyl-1H-pyrazol-3-yl ethyl carbonate] | < 10
21 | Cn1cnc(C2CC3CC(N)CC3C2)c1C(=O)Nc1ccc(F)c(Cl)c1 (centres unmarked) [Example 13, 4-(5-Aminooctahydropentalen-2-yl)-N-(3-chloro-4-fluorophenyl)-1-methyl-1H-imidazole-5-carboxamide] | 10 to 50
22 | CNS(=O)(=O)Nc1cc(C2(O)CC3CC(c4ncn(C)c4C(=O)Nc4ccc(F)c(Cl)c4)CC3C2)n(C)n1 (centres unmarked) [Example 201, N-(3-Chloro-4-fluorophenyl)-4-(5-hydroxy-5-(1-methyl-3-((N-methylsulfamoyl)amino)-1H-pyrazol-5-yl)octahydropentalen-2-yl)-1-methyl-1H-imidazole-5-carboxamide] | < 10
23 | O=C(Nc1ccc(F)c(Cl)c1)c1sc(C(F)(F)F)nc1C1CC2CC(O)CC2C1 (centres unmarked) [Example 37, N-(3-chloro-4-fluorophenyl)-4-(5-hydroxyoctahydropentalen-2-yl)-2-(trifluoromethyl)thiazole-5-carboxamide] | 50 to 500
24 | Cn1cnc(C2CC3CC(O)(Cn4ccc(O)n4)CC3C2)c1C(=O)Nc1ccc(F)c(Cl)c1 (centres unmarked) [Example 95, N-(3-chloro-4-fluorophenyl)-4-(5-hydroxy-5-((3-hydroxy-1H-pyrazol-1-yl)methyl)octahydropentalen-2-yl)-1-methyl-1H-imidazole-5-carboxamide] | 10 to 50
25 | COc1cnn(C)c1C1(O)CC2CC(c3ncn(C)c3C(=O)Nc3ccc(F)c(Cl)c3)CC2C1 (centres unmarked) [Example 134, N-(3-chloro-4-fluorophenyl)-4-(5-hydroxy-5-(4-methoxy-1-methyl-1H-pyrazol-5-yl)octahydropentalen-2-yl)-1-methyl-1H-imidazole-5-carboxamide] | < 10
26 | O=C1CC2CC(c3nc4n(c3C(=O)Nc3ccc(F)c(Cl)c3)CCC4)CC2C1 (centres unmarked) [Example 31, N-(3-Chloro-4-fluorophenyl)-2-(5-oxooctahydropentalen-2-yl)-6,7-dihydro-5H-pyrrolo[1,2-a]imidazole-3-carboxamide] | < 10
27 | CC(C)n1nc(N)cc1C1(O)CC2CC(c3ncn(C)c3C(=O)Nc3ccc(F)c(Cl)c3)CC2C1 (centres unmarked) [Example 77, 4-(5-(3-Amino-1-Isopropyl-1H-pyrazol-5-yl)-5-hydroxyoctahydropentalen-2-yl)-N-(3-chloro-4-fluorophenyl)-1-methyl-1H-imidazole-5-carboxamide] | < 10
28 | Cn1cnc(C2CC3CC(O)(c4c(F)c(O)nn4C)CC3C2)c1C(=O)Nc1ccc(F)c(Cl)c1 (centres unmarked) [Example 61, N-(3-Chloro-4-fluorophenyl)-4-(5-(4-fluoro-3-hydroxy-1-methyl-1H-pyrazol-5-yl)-5-hydroxyoctahydropentalen-2-yl)-1-methyl-1H-imidazole-5-carboxamide] | < 10

Same assay, conditions: viral load lowering, 5 days, qPCR of supernatant, read-out: VL HepAD38 EC50 range

Row | SMILES | EC50 [nM]
29 | Cn1cnc(C2CC3CC(O)(c4cc(OCC(O)CO)nn4C)CC3C2)c1C(=O)Nc1ccc(F)c(Cl)c1 (single isomer, unassigned) [Example 206, N-(3-Chloro-4-fluorophenyl)-4-(5-(3-(2,3-dihydroxypropoxy)-1-methyl-1H-pyrazol-5-yl)-5-hydroxyoctahydropentalen-2-yl)-1-methyl-1H-imidazole-5-carboxamide] | < 10
